From US20230181673A1, “TRI-PEPTIDES AND TREATMENT OF METABOLIC, CARDIOVASCULAR AND INFLAMMATORY DISORDERS” (Diapin Therapeutics, LLC, priority 2018, published 2023)
Non-standard residues stand in square brackets, D forms with d. No end group written: not given here.

What was measured:
[1] = tested on: ABCG8; assay: Western blot of hepatic ABCG8 in WD-fed apoE−/− mice; format: in vivo; conditions: normalized to β-Actin
From the text: (§1) Eight-week-old male apolipoprotein E-deficient (apoE−/−) mice (B6.129P2-Apoetm1Unc/J, Stock No.: 002052) were obtained from Jackson Laboratories. Mice were fed Western diet (WD, 42% of calories from fat and 0.2% cholesterol by weight, Envigo TD.88137). After one week of WD feeding, blood was carefully collected from the facial vein to determine baseline plasma levels of total cholesterol (TC). […] All mice were maintained on a 12-hour light/dark cycle and had ad libitum access to food and water. Body weight and food intake were measured every one and three weeks, respectively
The following primary antibodies were used: rabbit polyclonal anti-ABCG8 (Santa Cruz Biotechnology, sc-30111, working dilution 1:1000) and rabbit polyclonal anti-β-Actin (Cell signaling, 4967S, working dilution 1:3000). After TBST washing, membranes were incubated with secondary antibodies (LI-COR Biotechnology, donkey anti-rabbit IRDye 926-32213, 926-88073, working dilution 1:10000) for 1 hour at room temperature.

[2] = tested on: liver transcriptome; format: in vivo, mice; conditions: for TGFβ signaling and ECM remodeling pathways/genes (RNA-sequencing) / Pro-inflammatory signaling regulator and cytokine genes (NFKB1/2, RELB, CCR1/2/5, TLR1/2/4, TNFRSF1A/9/12, TNFα, CCL2/5) / Key genes regulating FAO (PPARα, PGC1α, ACOX1, CPT2, ACADS/M/L, HADHA/B, ACOT3/4): NASH-diet; for TGFβ signaling and ECM remodeling pathways/genes (RNA-sequencing): liver; for Pro-inflammatory signaling regulator and cytokine genes (NFKB1/2, RELB, CCR1/2/5, TLR1/2/4, TNFRSF1A/9/12, TNFα, CCL2/5) / Key genes regulating FAO (PPARα, PGC1α, ACOX1, CPT2, ACADS/M/L, HADHA/B, ACOT3/4): RNA-sequencing; for Key genes regulating FAO (PPARα, PGC1α, ACOX1, CPT2, ACADS/M/L, HADHA/B, ACOT3/4): confirmed by qPCR and Western blot
Description: Library preparation and sequencing were performed by the U-M DNA Sequencing Core on a NovaSeq 6000 Sequencing System (Illumina). RNA-sequencing and pathway analyses were performed as described.
Total RNA from mouse liver samples was extracted as described above. Library preparation and sequencing were performed by the University of Michigan DNA Sequencing Core. RNA was assessed for quality using the TapeStation (Agilent, Santa Clara, Calif.). […] Samples were prepped using the NEBNext Ultra II Directional RNA Library Prep Kit for Illumina (NEB, E7760L) with Poly(A) mRNA Magnetic Isolation Module (NEB, E7490L) and NEBNext Multiplex Oligos for Illumina Unique dual (NEB, E6440L), where 10 ng-1 μg of total RNA were subjected to mRNA polyA purification. The mRNA was then fragmented and copied into first strand cDNA using reverse transciptase and dUTP mix. Samples underwent end repair and dA-Tailing step followed by ligation of NEBNext adapters. The products were purified and enriched by PCR to create the final cDNA library. Final libraries were checked for quality and quantity by TapeStation (Agilent) and qPCR using Kapa's library quantification kit for Illumina Sequencing platforms (Kapa Biosystems, KK4835). Libraries were paired-end sequenced on a […] Sequencing System (Illumina).
The quality of the raw Fastq files was checked through FastQC v0.11.8 (https://www.bioinformaties.babraham.ac.uk/projects/fastqc/). Trimmomatic v.0.35 was used to trim the low-quality reads with the parameters: SLIDINGWINDOW:4:20 MINLEN:25.12 The resulted high-quality reads were then mapped to the mouse reference genome (GRCm38.90) using HISAT2 v.2.1.0.13 Gene level quantification was performed using HTSeq-counts v0.6.0 based on the GRCm38.90 genome annotations.14 The R package DESeq2 was then used to identify significant differentially expressed genes. 15 We considered genes with adjusted P value less than 0.05 and absolute fold change larger than 2 as significant differentially expressed genes (DEGs). […] 16 The significance of the enrichment was determined by right-tailed Fisher's exact test followed by Benjamini-Hochberg multiple testing adjustment.
(§2) Mice fed CD and administered H2O served as control.

[3] = tested on: atherosclerotic lesions; assay: Analysis of atherosclerotic lesions (Oil Red O, en face aorta) in WD-fed apoE−/− mice; format: in vivo; conditions: apoE−/− mice on WD, 12 weeks; vs WD+H2O
From the text: as §1
After collection of blood, the mice were perfused with 20 mL of saline solution through the heart, followed by 20 mL of 37% formalin. The mice were fixed with formalin and the whole aortic tree was dissected under a surgical microscope. Next, the aortic trees were stained with Oil Red O solution (0.2% Oil Red O (w/v) in 3.5:1 of methanol:1N NaOH) for 50 min, followed by 70% ethanol for 30 min. Aortic trees were then kept in DDW. The aortic trees were then cleared of adhering adipose and connective tissues, and longitudinally opened with Vannas scissors to expose the atherosclerotic lesions. Images of whole aortic trees were obtained using a digital camera, and the percentage of the plaque area stained by Oil Red O with respect to the total luminal surface area was quantified with ImageJ analysis software (http://imagej.nih.gov/ij/).

[4] = tested on: hepatic gene expression; format: in vivo, mice; conditions: NASH-diet, liver
Description: (§3) Total RNA from mouse liver samples was extracted using QIAGEN's RNeasy kits (QIAGEN). RNA was reverse-transcribed into cDNA with SuperScript III and random primers (Invitrogen). Specific transcript levels were assessed by a real-time PCR system (Bio-Rad) using IQ SYBR Green Supermix (Bio-Rad) and the ΔΔCt threshold cycle method of normalization. Gene expression levels were normalized to glycerldehyde 3-phosphate dehydrogenase (GAPDH).
as §2

[5] = tested on: diet-induced NASH; format: in vivo, mice; conditions: for NASH-diet-induced hepatomegaly and yellowish coloration: leucine 0.17, glycine 0.33, DT-109 0.125 or 0.5 mg/g/day
[6] = tested on: hepatic gene expression; assay: qPCR analysis of hepatic gene expression in WD-fed apoE−/− mice; format: in vivo; conditions: for Hepatic expression of CCL2 / Hepatic expression of TNFα / Hepatic expression of key genes regulating FAO (PPARα, PNPLA2, CACT, CPT1a, ACADL): apoE−/− mice on WD, qPCR (FIG. 16D)
From the text: as §1
as §3, with “from” for “from mouse”, “liver or adipose tissue” for “liver”, “glyceraldehyde” for “glycerldehyde”, “(GAPDH). Primer pairs used for qPCR were obtained from Integrated DNA Technologies and are listed below:” for “(GAPDH).”
as §3

Compound | ABCG8 protein in liver (Western blot) [1] | TGFβ signaling and ECM remodeling pathways/genes (RNA-sequencing) [2] | Pro-inflammatory signaling regulator and cytokine genes (NFKB1/2, RELB, CCR1/2/5, TLR1/2/4, TNFRSF1A/9/12, TNFα, CCL2/5) [2] | Key genes regulating FAO (PPARα, PGC1α, ACOX1, CPT2, ACADS/M/L, HADHA/B, ACOT3/4) [2] | Total atherosclerotic plaques (en face aortic lesions, Oil Red O), reduction by [3] | NFKB2, RELB and TNFα expression (qPCR) [4] | F4/80 immunostaining in liver ([5]; endpoint, NASH-diet) | NASH-diet-induced hepatic fibrosis (Sirius Red and fibrosis scoring) ([5]; endpoint, NASH-diet) | NASH-diet-induced hepatomegaly and yellowish coloration ([5]; endpoint) | Hepatic expression of CCL2 [6] | Hepatic expression of TNFα [6] | Hepatic expression of key genes regulating FAO (PPARα, PNPLA2, CACT, CPT1a, ACADL) [6] | Hepatic expression of ABCG5 and ABCG8 ([6]; liver, endpoint, qPCR) | Hepatic expression of AMPKα1 and PPARα ([6]; liver, endpoint, qPCR) | Hepatic expression of PNPLA2, CPT1a, CACT, ACADI and UCP2 ([6]; liver, endpoint, qPCR) | TGFβ-related genes (qPCR) [4] | also measured
NCC(=O)O [glycine, reference compound] | Overexpression | attenuated | attenuated | reversed | 48% | significantly downregulated | attenuated | protective effects | markedly attenuated | downregulation | without significant changes | upregulation | significantly increased | significantly induced | significantly upregulated | – | Hepatic expression of genes regulating gluconeogenesis (G6pc, PCK1 and FBP1) ([6]; liver, endpoint, qPCR): no significant change; Hepatic expression of genes regulating glucose uptake (GLUT1, GLUT2 and GLUT4) ([6]; liver, endpoint, qPCR): upregulated; MCP1 expression in the liver ([6]; liver, endpoint, qPCR): suppressed
CC(C)C[C@H](N)C(=O)O [leucine] | – | – | upregulated | suppressed | but not in mice treated with leucine | – | significantly increased | but not leucine | – | – | – | – | – | – | – | markedly upregulated | –
Gly-Gly-Leu [DT-109] | Overexpression | attenuated | attenuated | reversed | 62% | significantly downregulated | attenuated | protective effects | markedly attenuated | downregulation | without significant changes | upregulation | significantly increased | significantly induced | significantly upregulated | attenuated | Pathway analysis, NASH-diet H2O control vs treatment ([2]; DT-109 0.5 mg/g/day): reversed NASH-diet-induced alterations in underlying pathways; CCL2, CCR2 and CCR5 expression (qPCR) ([4]; 0.5 mg/g/day DT-109): downregulated; Adipocyte hypertrophy in EAT and SAT ([5]; NASH-diet, 0.5 mg/g/day DT-109): decreased adipocyte hypertrophy; NAS ([5]; endpoint, 0.5 mg/g/day DT-109): significantly decreased
Gly-Gly-[dL] [DT-110] | Overexpression | – | – | – | 49% | – | – | – | – | – | – | – | significantly increased | significantly induced | significantly upregulated | – | Hepatic GLUT1 expression ([6]; liver, endpoint, qPCR): markedly induced; Hepatic expression of LDLR ([6]; liver, endpoint, qPCR): significant upregulation
